In assay [1] the test system is MDA-MB-453. The assay is described as follows: Induction of apoptosis in human MDA-MB-453 cells assessed downregulation of bcl-xl expression at 0.25 uM at 48 hrs by Western blot analysis. The assay is classed as functional, cell-based. On the technique in general: In western blotting, separated proteins are transferred to a membrane and probed.
Assay [2] has as its target T1, Inhibitor of nuclear factor kappa-B kinase subunit alpha (Homo sapiens) (UniProt O15111).
T1 sequence (whole entry): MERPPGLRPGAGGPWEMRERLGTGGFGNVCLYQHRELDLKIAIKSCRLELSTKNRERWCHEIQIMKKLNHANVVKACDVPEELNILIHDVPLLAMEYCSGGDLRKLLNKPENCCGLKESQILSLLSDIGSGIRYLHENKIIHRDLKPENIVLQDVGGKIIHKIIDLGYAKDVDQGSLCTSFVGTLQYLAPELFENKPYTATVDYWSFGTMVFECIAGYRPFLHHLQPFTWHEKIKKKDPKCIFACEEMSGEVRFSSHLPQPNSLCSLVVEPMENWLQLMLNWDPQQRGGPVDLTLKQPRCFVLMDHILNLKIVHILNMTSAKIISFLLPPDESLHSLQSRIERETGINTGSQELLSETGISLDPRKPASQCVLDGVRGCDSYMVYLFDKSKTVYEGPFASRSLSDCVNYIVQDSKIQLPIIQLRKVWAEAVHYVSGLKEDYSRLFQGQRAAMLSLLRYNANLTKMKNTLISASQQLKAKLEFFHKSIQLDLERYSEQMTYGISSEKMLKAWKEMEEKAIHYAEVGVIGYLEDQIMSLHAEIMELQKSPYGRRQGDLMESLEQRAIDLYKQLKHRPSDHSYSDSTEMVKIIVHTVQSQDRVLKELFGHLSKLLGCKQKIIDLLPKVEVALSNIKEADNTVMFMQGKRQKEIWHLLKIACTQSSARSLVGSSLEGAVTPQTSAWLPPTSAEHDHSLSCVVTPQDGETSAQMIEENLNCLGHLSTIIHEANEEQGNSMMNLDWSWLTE
The assay is described as follows: Induction of IKKalpha association to hsp27 in human MDA-MB-453 cells at 0.25 uM after 6 hrs by immunoprecipitation and Western analysis. The format is cell-based.

Assay [3] relates to MDA-MB-453. The assay can be described thus: Induction of apoptosis in human MDA-MB-453 cells assessed as early apoptotic cells at 4 uM after 48 hrs by Annexin V-FITC/propidium iodide-staining based flow cytometry (reference value: 1.65%). The format is functional. Background: In flow cytometry, cells or beads pass a laser one at a time.
For assay [4], the system named is MDA-MB-453. The assay is described as follows: Induction of apoptosis in human MDA-MB-453 cells assessed as late apoptotic cells at 1 uM after 48 hrs by Annexin V-FITC/propidium iodide-staining based flow cytometry (reference value: 3.40%). The format is functional.
The test system of assay [5] is MDA-MB-453. The assay is described as follows: Induction of apoptosis in human MDA-MB-453 cells assessed as necrotic cells at 1 uM after 48 hrs by Annexin V-FITC/propidium iodide-staining based flow cytometry (reference value: 0.01%). The assay is classed as functional.
For assay [6], the system named is MDA-MB-453. The assay is described as follows: Induction of apoptosis in human MDA-MB-453 cells assessed as increase in cleaved caspase3 activity at 0.25 uM up to 48 hrs in presence of z-VAD-fmk by Western blot analysis. The assay is classed as functional, cell-based.
In assay [7] the target is Heat shock protein HSP 90-alpha (Homo sapiens) (UniProt P07900). The assay can be described thus: Inhibition of HSP90alpha in human MDA-MB-453 cells assessed as upregulation of HSP70 levels by Western blot analysis. The assay is classed as cell-based.
In assay [8] the target is MAP kinase p38 (Homo sapiens) (UniProt O15264+Q15759+Q16539+P53778). The assay can be described thus: Induction of p38 in human MDA-MB-453 cells assessed as upregulation of Hsp27 Ser82 phosphorylation at Ser82 at 0.25 uM after 2 hrs by Western blot analysis. The format is cell-based.
Assay [9] deals with MDA-MB-453. The assay can be described thus: Induction of apoptosis in human MDA-MB-453 cells assessed downregulation of bcl2 expression at 0.25 uM at 48 hrs by Western blot analysis. The format is functional, cell-based.
For assay [10], the target named is Heat shock protein HSP 90-alpha (Homo sapiens) (UniProt P07900). The assay is described as follows: Inhibition of HSP90alpha in human MDA-MB-453 cells assessed as down-regulation of AKT levels by Western blot analysis. The format is cell-based.
The next assay has as its system HepG2. The assay can be described thus: Antiproliferative activity against human HepG2 cells by SRB assay. The format is functional, cell-based. Background: In SRB staining, fixed cells bind dye roughly in proportion to their protein.
Assay [11] deals with T2, Heat shock protein HSP90 (Homo sapiens) (UniProt P07900+P08238). The assay can be described thus: Inhibition of HSP90 in human MDA-MB-453 cells assessed as suppression of TNFalpha-induced NFkappaB activation by measuring reduction in IKBalpha degradation at 0.25 uM after 24 hrs by Western blot analysis. The format is cell-based.
Assay [12] concerns MDA-MB-453. The assay can be described thus: Induction of apoptosis in human MDA-MB-453 cells assessed as necrotic cells at 4 uM after 48 hrs by Annexin V-FITC/propidium iodide-staining based flow cytometry (reference value: 0.01%). The format is functional.
Assay [13] concerns the target Heat shock protein HSP 90-alpha (Homo sapiens) (UniProt P07900). The assay can be described thus: Binding affinity to HSP90alpha in HEK293T cells assessed as induction of thermal stabilisation of HSP90alpha pre-incubated for 3 hrs followed by heating at 37 to 63 degC for 3 mins then subsequent cooling for 3 mins by Western blot-based CESTA relative to beta actin. The format is cell-based.

The subject of the next assay is NCI-H1299. The assay is described as follows: Antiproliferative activity against human NCI-H1299 cells by SRB assay. The assay is classed as functional, cell-based.
The subject of the next assay is MDA-MB-231. The assay can be described thus: Antiproliferative activity against human MDA-MB-231 cells by SRB assay. The assay is classed as functional, cell-based.
The subject of another assay is HeLa. The assay can be described thus: Antiproliferative activity against human HeLa cells by SRB assay. The assay is classed as functional, cell-based.
The target of assay [14] is Heat shock protein HSP 90-alpha (Homo sapiens) (UniProt P07900). The assay is described as follows: Binding affinity to HSP90alpha in HEK293T cells assessed as induction of thermal stabilisation of HSP90alpha at 10 uM pre-incubated for 3 hrs followed by heating at 37 to 63 degC for 3 mins then subsequent cooling for 3 mins by Western blot-based CESTA relative to beta actin. The format is cell-based.

In assay [15] the target is T2, Heat shock protein HSP90 (Homo sapiens). The assay can be described thus: Inhibition of HSP90 in human MDA-MB-453 cells assessed as downmodulation of IKKalpha expression at 0.25 uM up to 48 hrs by Western blot analysis. The assay is classed as cell-based.

Each structure is given as a SMILES string. The source made the active and inactive calls. No cut-off for these calls is given here.

`O=C(NCc1ccncc1)[C@H]1Cc2ccccc2CN1C(=O)c1cc(Cl)c(O)cc1O`: the result (in the assay with MDA-MB-453 [1]; in assay [2]; in assay [8]; with MDA-MB-453 [9]; in the assay with HepG2; with NCI-H1299) was Active. Moreover, the outcome (in the assay on MDA-MB-231; in the assay with HeLa; in assay [14]) was Active. Besides, the Activity with MDA-MB-453 [3] is 23.49%; in the assay with MDA-MB-453 [4] it was 15.11%; with MDA-MB-453 [5], 0.03%; in the assay with MDA-MB-453 [12], 0.54%; in [13] it was “Dose-dependent effect”. Further, the outcome in the assay with MDA-MB-453 [6] was inactive. Also, the inhibition entry in [7] and in [10] was “Dose-dependent effect” each time. Also, the inhibition result in [11] and in assay [15] was “Active” each time.

For the origin of these results see ChEMBL document CHEMBL4138197, “Design, synthesis and pharmacological evaluation of N-(5-chloro-2,4-dihydroxybenzoyl)-(R)-N-arylmethyl-1,2,3,4-tetrahydro-3-isoquinolinecarboxamides as potent Hsp90 inhibitors” (Eur J Med Chem, 2018).
